Source: patent EP4700036A1, “GLYCOLIPID DERIVATIVE AS MINCLE LIGAND” (The University of Osaka, priority 2023, dated 2024)

Biological target: T1, bovine Mincle (Bos taurus, UniProt E1BHM0)
T1 construct: expressed in transfected cells
T1 sequence (E1BHM0 1-211): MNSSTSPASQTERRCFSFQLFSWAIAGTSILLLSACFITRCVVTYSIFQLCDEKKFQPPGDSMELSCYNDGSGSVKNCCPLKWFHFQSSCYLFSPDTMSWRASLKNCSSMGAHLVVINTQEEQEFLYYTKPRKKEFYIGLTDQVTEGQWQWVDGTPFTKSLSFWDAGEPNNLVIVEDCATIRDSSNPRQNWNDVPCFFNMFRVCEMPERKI
Experiment: Mincle ligand activity, NFAT-GFP reporter cells expressing bovine Mincle
Type: cell-based
Settings: 96-well plate, 0.03 to 3 nmol; Fig. 1 (right)
Method: Similarly, using NFAT-GFP reporter cells expressing bovine Mincle, prepared according to the method described in a literature (Yamasaki, S. et al, Nat Immunol 9, 1179-88(2008)), the ligand activity of HD-276 was evaluated on a 96-well plate. The doses of the test compounds (horizontal axis) were 0.03 to 3 (nmol) from the left to right.

CCCCCCc1ccc(O[C@@H]2O[C@@H](C)[C@H](O)[C@@H](OC)[C@H]2O[C@@H]2O[C@@H](C)[C@H](O[C@@H]3O[C@H](COC)[C@@H](O)[C@H](O)[C@H]3O)[C@@H](OC)[C@H]2OC)cc1 [HD-276]
Mincle ligand activity (reporter activity): confirmed to have Mincle ligand activity
